# Data taken from patent US6737383B1, “Herbicidal oxadiazolidines” (priority 1999, dated 2004).
# What was measured:
# surinam grass = assay: Test B pre/postemergence surinam grass; format: in vivo, Brachiaria decumbens
# Procedure, shortened: (§1)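 Herbicidal effect was estimated by eye on a ten-point control scale after plants spent twelve to sixteen days in a greenhouse following soil or foliar treatment. Foliar sprays targeted plants at one to four leaves; all doses were formulated in a non-phytotoxic solvent with surfactant.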
# soybean = assay: Test B pre/postemergence soybean; format: in vivo, Glycine max
# Procedure, shortened: as §1
# corn = assay: Test B pre/postemergence corn; format: in vivo, Zea mays
# Procedure, shortened: as §1
# bedstraw = assay: Test B pre/postemergence bedstraw; format: in vivo, Galium aparine
# Procedure, shortened: as §1
# blackgrass = assay: Test B pre/postemergence blackgrass; format: in vivo, Alopecurus myosuroides
# Procedure, shortened: as §1
# crabgrass = assay: Test B pre/postemergence crabgrass; format: in vivo, Digitaria sanguinalis
# Procedure, shortened: as §1
# morningglory = assay: Test B pre/postemergence morningglory; format: in vivo, Ipomoea hederacea
# Procedure, shortened: as §1
# duck salad = assay: Test B flood test duck salad; format: in vivo, Heteranthera limosa
# Procedure, shortened: (§2)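 Read-out is a visual response score from 0 (no effect) to 10 (complete control), assigned by comparison with untreated controls. Treatment was applied at the 2-leaf stage, and plants stayed in the greenhouse for twelve to sixteen days before scoring.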
# giant foxtail = assay: Test B pre/postemergence giant foxtail; format: in vivo, Setaria faberii
# Procedure, shortened: as §1
# smallflower flatsedge = assay: Test B flood test smallflower flatsedge; format: in vivo, Cyperus difformis
# Procedure, shortened: as §2
# rice = assay: Test B flood test rice; format: in vivo, Oryza sativa
# Procedure, shortened: as §2
# velvetleaf = assay: Test B pre/postemergence velvetleaf; format: in vivo, Abutilon theophrasti
# Procedure, shortened: as §1
# wheat = assay: Test B pre/postemergence wheat; format: in vivo, Triticum aestivum
# Procedure, shortened: as §1
# purple nutsedge = assay: Test B pre/postemergence purple nutsedge; format: in vivo, Cyperus rotundus
# Procedure, shortened: as §1
# wild oat = assay: Test B pre/postemergence wild oat; format: in vivo, Avena fatua
# Procedure, shortened: as §1
# rape = assay: Test B pre/postemergence rape; format: in vivo, Brassica napus
# Procedure, shortened: as §1
# [1] = Postemergence, Rate 125 g/ha, scale of 0 to 10 where 0 is no effect and 10 is complete control
# [2] = Postemergence, Rate 1000 g/ha, scale 0 to 10 (0 no effect, 10 complete control)
# [3] = Preemergence, Rate 125 g/ha, 0 is no effect, 10 is complete control
# [4] = Preemergence, Rate 250 g/ha, scale 0 to 10, 0 is no effect, 10 is complete control
# [5] = Preemergence, Rate 500 g/ha, scale 0 to 10 (0 no effect, 10 complete control)
# [6] = Rate 250 g/ha, Postemergence, scale 0 to 10, 0 is no effect, 10 is complete control
# [7] = Rate 1000 g/ha, Preemergence, scale 0 to 10 (0 no effect, 10 complete control)
# [8] = Rate 500 g/ha, Postemergence, scale 0 to 10
# [9] = Postemergence (flood test species), Rate 125 g/ha, scale of 0 to 10 where 0 is no effect and 10 is complete control
# [10] = Rate 250 g/ha, Postemergence (flood test), scale 0 to 10, 0 is no effect, 10 is complete control
# [11] = Rate 500 g/ha, listed under Postemergence (flood test species), scale 0 to 10
smiles,measurement,setting,value
Cc1ccccc1-n1c(=O)on(C(=O)N(c2c(F)cccc2F)C(C)C)c1=O [Compound 176],B. signalgrass plant response rating,surinam grass; [1],0
same,B. signalgrass plant response rating,surinam grass; [2],2
same,B. signalgrass plant response rating (0 to 10 scale),surinam grass; [3],0
same,B. signalgrass plant response rating,surinam grass; [4],0
same,B. signalgrass plant response rating,surinam grass; [5],0
same,"Plant response rating, B. signalgrass",surinam grass; [6],0
same,B. signalgrass plant response rating,"surinam grass; Rate 500 g/ha, Postemergence, scale 0 to 10, 0 no effect, 10 complete control",0
same,"Plant response rating, B. signalgrass",surinam grass; [7],3
same,Soybean plant response rating,soybean; [1],2
same,Soybean plant response rating,soybean; [2],4
same,Soybean plant response rating (0 to 10 scale),soybean; [3],0
same,Soybean plant response rating,soybean; [4],0
same,Soybean plant response rating,soybean; [5],0
same,"Plant response rating, Soybean",soybean; [6],2
same,Soybean plant response rating,soybean; [8],4
same,"Plant response rating, Soybean",soybean; [7],2
same,Corn plant response rating,corn; [1],0
same,Corn plant response rating,corn; [2],0
same,Corn plant response rating (0 to 10 scale),corn; [3],0
same,Corn plant response rating,corn; [4],0
same,Corn plant response rating,corn; [5],0
same,"Plant response rating, Corn",corn; [6],0
same,Corn plant response rating,corn; [8],0
same,"Plant response rating, Corn",corn; [7],2
same,Bedstraw plant response rating,bedstraw; [1],0
same,Bedstraw plant response rating,bedstraw; [2],9
same,Bedstraw plant response rating (0 to 10 scale),bedstraw; [3],0
same,Bedstraw plant response rating,bedstraw; [4],0
same,Bedstraw plant response rating,bedstraw; [5],0
same,"Plant response rating, Bedstraw",bedstraw; [6],2
same,Bedstraw plant response rating,bedstraw; [8],8
same,"Plant response rating, Bedstraw",bedstraw; [7],6
same,Blackgrass plant response rating,blackgrass; [1],0
same,Blackgrass plant response rating,blackgrass; [2],7
same,Blackgrass plant response rating (0 to 10 scale),blackgrass; [3],0
same,Blackgrass plant response rating,blackgrass; [4],2
same,Blackgrass plant response rating,blackgrass; [5],3
same,"Plant response rating, Blackgrass",blackgrass; [6],0
same,Blackgrass plant response rating,blackgrass; [8],3
same,"Plant response rating, Blackgrass",blackgrass; [7],7
same,Crabgrass plant response rating,crabgrass; [1],0
same,Crabgrass plant response rating,crabgrass; [2],9
same,Crabgrass plant response rating (0 to 10 scale),crabgrass; [3],8
same,Crabgrass plant response rating,crabgrass; [4],9
same,Crabgrass plant response rating,crabgrass; [5],10
same,"Plant response rating, Crabgrass",crabgrass; [6],3
same,Crabgrass plant response rating,crabgrass; [8],6
same,"Plant response rating, Crabgrass",crabgrass; [7],10
same,Morningglory plant response rating,morningglory; [1],2
same,Morningglory plant response rating,morningglory; [2],7
same,Morningglory plant response rating (0 to 10 scale),morningglory; [3],0
same,Morningglory plant response rating,morningglory; [4],0
same,Morningglory plant response rating,morningglory; [5],0
same,"Plant response rating, Morningglory",morningglory; [6],2
same,Morningglory plant response rating,morningglory; [8],3
same,"Plant response rating, Morningglory",morningglory; [7],0
same,Ducksalad plant response rating,duck salad; [9],0
same,Ducksalad plant response rating,duck salad; [2],0
same,"Plant response rating, Ducksalad",duck salad; [10],0
same,Ducksalad plant response rating,duck salad; [11],0
same,Giant foxtail plant response rating,giant foxtail; [1],0
same,Giant foxtail plant response rating,giant foxtail; [2],7
same,Giant foxtail plant response rating (0 to 10 scale),giant foxtail; [3],6
same,Giant foxtail plant response rating,giant foxtail; [4],10
same,Giant foxtail plant response rating,giant foxtail; [5],10
same,"Plant response rating, Giant foxtail",giant foxtail; [6],0
same,Giant foxtail plant response rating,giant foxtail; [8],6
same,"Plant response rating, Giant foxtail",giant foxtail; [7],10
same,S. Flatsedge plant response rating,smallflower flatsedge; [9],0
same,S. Flatsedge plant response rating,smallflower flatsedge; [2],0
same,"Plant response rating, S. Flatsedge",smallflower flatsedge; [10],0
same,S. Flatsedge plant response rating,smallflower flatsedge; [11],0
same,Rice plant response rating,rice; [9],0
same,Rice plant response rating,rice; [2],0
same,"Plant response rating, Rice",rice; [10],0
same,Rice plant response rating,rice; [11],0
same,Velvetleaf plant response rating,velvetleaf; [2],3
same,Velvetleaf plant response rating (0 to 10 scale),velvetleaf; [3],0
same,Velvetleaf plant response rating,velvetleaf; [4],0
same,Velvetleaf plant response rating,velvetleaf; [5],2
same,"Plant response rating, Velvetleaf",velvetleaf; [6],2
same,Velvetleaf plant response rating,velvetleaf; [8],2
same,"Plant response rating, Velvetleaf",velvetleaf; [7],5
same,Wheat plant response rating,wheat; [2],4
same,Wheat plant response rating (0 to 10 scale),wheat; [3],0
same,Wheat plant response rating,wheat; [4],0
same,Wheat plant response rating,wheat; [5],0
same,"Plant response rating, Wheat",wheat; [6],0
same,Wheat plant response rating,wheat; [8],2
same,"Plant response rating, Wheat",wheat; [7],4
same,Nutsedge plant response rating,purple nutsedge; [1],0
same,Nutsedge plant response rating (0 to 10 scale),purple nutsedge; [3],0
same,Nutsedge plant response rating,purple nutsedge; [4],0
same,Nutsedge plant response rating,purple nutsedge; [5],0
same,"Plant response rating, Nutsedge",purple nutsedge; [6],0
same,Nutsedge plant response rating,purple nutsedge; [8],0
same,"Plant response rating, Nutsedge",purple nutsedge; [7],10
same,Wild oats plant response rating,wild oat; [2],4
same,Wild oats plant response rating (0 to 10 scale),wild oat; [3],0
same,Wild oats plant response rating,wild oat; [4],3
same,Wild oats plant response rating,wild oat; [5],5
same,"Plant response rating, Wild oats",wild oat; [6],0
same,Wild oats plant response rating,wild oat; [8],0
same,"Plant response rating, Wild oats",wild oat; [7],5
same,Rape plant response rating,rape; [1],0
same,Rape plant response rating,rape; [2],0
same,Rape plant response rating (0 to 10 scale),rape; [3],0
same,Rape plant response rating,rape; [4],0
same,Rape plant response rating,rape; [5],0
same,"Plant response rating, Rape",rape; [6],0
same,Rape plant response rating,rape; [8],0
same,"Plant response rating, Rape",rape; [7],3
